# Columns and labels:
# Type in all cases: in vivo
# [1] = test system: F. oxysporum f. sp. niveum; experiment: Greenhouse foliar spray, watermelon with or without Fusarium; details: disease conditions
# Method: Watermelon seeds (Citrullus lanatus Thunb. cv Sugar Baby, Harris Seed Co., Rochester, N.Y.) were germinated in soilless potting mix (ProMix BX, Premier Hort Tech, Quakertown, Pa., USA) and fertilized once after three weeks with 40 mL of Peter's soluble 20-10-20 (N—P—K) fertilizer (R. J. Peters Inc., Allentown, Pa.). When plants reached the 3- to 4-leaf stage, uniform medium size plants were selected for NP exposure. […] For CuO NP, the suspension was sonicated using a probe sonicator for 2 min in an ice bath. […] One to two drops (1 ml/L) of Regulaid® nonionic surfactant were added into the suspensions prior to exposure. Polyvinylidene chloride film (Saran™ wrap) was fitted around the stem to prevent soil exposure to the NP suspensions. Although the primary purpose of this work was to compare different nanoscale materials, bulk CuO and CuSO4 (Sigma, St. Louis, Mo.) were used for additional comparative purposes in the greenhouse experiments. […]
# F. oxysporum f. sp. niveum was prepared on Japanese millet, as previously described. […] The progress of disease as represented by the cumulative ratings of disease on replicate plants was plotted over time and the AUDPC was calculated using the trapezoid rule: AUDPC=Σ[Yi±Y(i±1)]/2×(t(i±1)−ti), where Yi=the disease rating at time ti. […]
# [2] = test system: Fusarium wilt of watermelon; experiment: Field experiment Location 1, Fusarium wilt of watermelon
# Method: (§1) Field experiments were conducted to evaluate if successful greenhouse results would translate to a field application. The following six treatments were established at two field locations (Hamden, Conn.—Location 1; and Griswold, Conn.—Location 2) to evaluate their effect on growth and Fusarium wilt of watermelon: CuO nanoparticles, Cu3(PO4)2.3H2O nanosheets, commercial powders of CuO and Cu3(PO4)2, CuSO4, and untreated controls. The commercial powders are not nanostructured as particles within the powders typically have a range of sizes from about 1 μm to 1 mm. Again, the primary purpose of this work was to compare the efficacy of the two nanoscale materials, and the suspensions of CuO and Cu3(PO4)2 commercial powders and the solution of CuSO4 were included only for comparison. It is noted that the CuO and Cu3(PO4)2 materials were used at concentrations where there were solid particles present in the liquid formulations, so those liquid formulations are best characterized as being suspensions with some dissolved ions. By contrast, because of its high solubility, CuSO4 in liquid is completely dissolved and thus is a true solution (only ions present and no remaining solid). […]
# (§2) Field microplots were prepared in early June, 2017. […] Total plant biomass and fruit mass were determined at harvest, and select tissues were dried for analysis by ICP mass spectrometry (ICP-MS) as noted below.
# [3] = test system: Fusarium wilt of watermelon; experiment: Field experiment Location 2, Fusarium wilt of watermelon; details: location 2, 400 mg/L, not statistically significant
# Method: as §1, §2
smiles,measurement,setting,value
O=S(=O)([O-])[O-].[Cu+2] [CuSO4],effect on disease-induced decrease in vine length,[1],had no impact
same,disease result compared with the nanomaterial treatments,"[2]; field, 400 mg/L",statistically equivalent
same,increase of yield (total wet mass of fruit per plot) over the disease condition,"[2]; location 1, 400 mg/L",no such benefit
same,increase of fruit yield,[3],38.2%

# Reference: patent US10820588B2, “Compositionally and morphologically controlled nanostructures for delivery of micronutrients and suppression of disease in agriculture” (Wisconsin Alumni Research Foundation, priority 2018, dated 2020)
